The values that follow come from patent US8546339B2, “Soothing cosmetic or pharmaceutical composition comprising a peptide which activates HMG-CoA reductase” (ISP Investments Inc., priority 2008, dated 2013).

Where no end group is shown, it is not given here.

One assay concerns HMG-CoA reductase. In words: Expression of HMG-CoA reductase in normal human keratinocytes (immunofluorescence). Format: cell-based. The settings on record: peptide 0.5 ppm (1% of 50 ppm stock), 24 or 48 hours, anti-HMG-CoA reductase antibody, epifluorescence microscopy. The method, then:
The goal of this study is to determine the influence of peptide SEQ ID No. 5 on the expression of HMG-CoA reductase in normal human keratinocytes.
Normal human keratinocytes in culture are treated with a 1% stock solution at 50 ppm of peptide SEQ ID No. 5 for 24 or 48 hours (the medium in the presence of the active ingredient is changed every 24 hours). The cells are then washed and fixed in cold methanol for 4 minutes at 4° C. The cells are incubated in the presence of a polyclonal rabbit antibody specific for HMG-CoA reductase (Millipore, Upstate), and then a secondary antibody coupled with a fluorescent dye. The cells are then examined by epifluorescence microscope (Nikon Eclipse E600 microscope).

The subject of assay [1] is interleukin-1 alpha (IL-1 alpha). The assay is described as follows: Ex vivo IL-1 alpha secretion by human skin biopsies (ELISA). The settings on record: peptide 0.5 ppm 24 h, vs controls untreated by the peptide. Format: cell-based. The method, then:
The goal of this study is to determine the ex vivo effect of peptide SEQ ID No. 5 on the production of the IL-1 alpha cellular inflammation mediator by biopsies of human skin cultivated under standard conditions or subjected to stress by UVB radiation or SDS.
5 mm-diameter biopsies of human skin are maintained in culture at the air-liquid interface in the presence of standard culture medium. The samples are treated with a 1% dilution of a solution at 50 ppm of peptide SEQ ID No. 5 for 24 hours, and then irradiated by UVB radiation (200 mJ/cm^2) and put back in culture for 24 hours, or subjected to contact with SDS at 2.5% for 24 hours in the presence of the same concentration of peptide SEQ ID No. 5. Controls untreated by the peptide are carried out under the same conditions. At the end of the experiment, the quantity of interleukin-1 alpha salted out in the culture medium is assayed by the ELISA technique.
A general note: In an ELISA, binding on a coated surface is turned into a signal by an enzyme label.

For the substance “Arg-Gly-Lys-Ser-NH2 (RGKS-NH2) [SEQ ID No. 5]”, the “HMG-CoA reductase expression (cytoplasmic fluorescence)” value with HMG-CoA reductase is “more intense cytoplasmic fluorescence”. Also, the “reduction of IL-1 alpha released in culture medium after SDS stress” value in assay [1] (SDS 2.5% for 24 hours with peptide) came to 58%. Also, the “reduction of IL-1 alpha released in culture medium after UVB radiation” value in assay [1] (UVB 200 mJ/cm^2, 24 h culture) was found to be 40%.
